Ki data for 2 molecules are collected here from BindingDB's records for doi:10.1002/cbic.201600513 (University of Florida, 2017).

The target in one test is Carbonic anhydrase 2 (Homo sapiens, UniProt P00918). Nature of the test: CA Inhibition Assay. The source says:
(§1) CA-catalyzed CO2 hydration activity methods were published previously by Cornelio et al. as part of a larger series of benzenesulfonamide-based inhibitors with aryl substitutions in the para position of the benzene ring.

In the next test the target is Carbonic anhydrase 12 (Homo sapiens, UniProt O43570). Nature of the test: CA Inhibition Assay.
Excerpt: as §1

Structures are written as SMILES.

Chain of Carbonic anhydrase 12 (O43570 whole entry): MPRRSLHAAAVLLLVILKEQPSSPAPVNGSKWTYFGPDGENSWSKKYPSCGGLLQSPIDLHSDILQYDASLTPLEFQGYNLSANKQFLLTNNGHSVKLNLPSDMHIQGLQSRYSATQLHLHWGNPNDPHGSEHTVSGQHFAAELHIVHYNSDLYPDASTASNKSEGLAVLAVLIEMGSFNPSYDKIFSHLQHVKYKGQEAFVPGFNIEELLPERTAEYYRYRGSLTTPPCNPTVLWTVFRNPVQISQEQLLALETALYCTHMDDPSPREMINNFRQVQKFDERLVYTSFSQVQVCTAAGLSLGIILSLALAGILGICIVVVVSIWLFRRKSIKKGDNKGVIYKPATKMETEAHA

As to `NS(=O)(=O)c1ccc(-c2ccccc2)cc1` [4-(phenyl)-bezenesulfonamide (4a)], the Ki (as a rule, the equilibrium dissociation constant of an inhibitor or competing ligand from its target) at Carbonic anhydrase 2 came to 0.8 nM. This counts as sub-nanomolar. For the molecule `NS(=O)(=O)c1ccc(-c2cccc(C=O)c2)cc1` [4-(3-formylphenyl)-benzenesulfonamide (4e)], the Ki on Carbonic anhydrase 12 came to 0.6 nM; on Carbonic anhydrase 2, 2 nM.
